Assay results from US8372420B2, “Compositions and methods for coating medical implants” (Angiotech International AG, priority 2002, dated 2013).

Assays:
Format in all cases: cell-based
[1] = system: organisms known to cause vascular access catheter-related infections; assay: Antibacterial activity of anticancer agents
S. aureus ATCC25923 C622 = assay: MIC determination by microtitre broth dilution; conditions: S. aureus ATCC25923 C622, wt, Gram+; Mueller Hinton broth, 37° C., 24 h
Method: (§1) A. MIC assay of various gram negative and positive bacteria MIC assays were conducted essentially as described by Amsterdam, D. 1996. Susceptibility testing of antimicrobials in liquid media, p. 52-111. In Loman, V., ed. Antibiotics in laboratory medicine, 4th ed. Williams and Wilkins, Baltimore, Md.

[2] = system: P. aeruginosa PAE/K799 H187; assay: MIC determination by microtitre broth dilution; conditions: for Minimum Inhibitory Concentrations: P. aeruginosa PAE/K799 H187, wt, Gram−, Mueller Hinton broth, 37° C., 24 h
Method: as §1

S. epidermidis C621 = assay: MIC determination by microtitre broth dilution; conditions: S. epidermidis C621, wt, Gram+; Mueller Hinton broth, 37° C., 24 h
Method: as §1

E. coli UB1005 C498 = assay: MIC determination by microtitre broth dilution; conditions: for Minimum Inhibitory Concentrations: E. coli UB1005 C498, wt, Gram−, Mueller Hinton broth, 37° C., 24 h
Method: as §1

[3] = system: K. pneumoniae ATCC13883 C238; assay: MIC determination by microtitre broth dilution; conditions: for Minimum Inhibitory Concentrations: K. pneumoniae ATCC13883 C238, wt, Gram−, Mueller Hinton broth, 37° C., 24 h
Method: as §1

S. pyogenes C721 = assay: MIC determination by microtitre broth dilution; conditions: S. pyogenes C721, wt, Gram+; Todd Hewitt broth, 37° C., 24 h
Method: as §1

Sc1ncc2[nH]cnc2n1 [2-mercaptopurine]
antibacterial activity against the organisms known to cause vascular access catheter-related infections [1]: did not have antibacterial activity | Minimum Inhibitory Concentrations (S. aureus ATCC25923 C622): N | Minimum Inhibitory Concentrations [2]: N | Minimum Inhibitory Concentrations (S. epidermidis C621): N | Minimum Inhibitory Concentrations (E. coli UB1005 C498): N | Minimum Inhibitory Concentrations [3]: N | Minimum Inhibitory Concentrations (S. pyogenes C721): N

O=c1[nH]cc(F)c(=O)[nH]1 [5-fluorouracil, 5-Fluorouracil]
Minimum Inhibitory Concentrations (S. aureus ATCC25923 C622): 10^−7 Molar | activity against Pseudomonas aeruginosa [2]: have activity | Minimum Inhibitory Concentrations [2]: 10^−5 Molar | Minimum Inhibitory Concentrations (S. epidermidis C621): 10^−7 Molar | activity against Escheridia coli (E. coli UB1005 C498): have activity | Minimum Inhibitory Concentrations (E. coli UB1005 C498): 10^−6 Molar | Minimum Inhibitory Concentrations [3]: 10^−6 Molar | Minimum Inhibitory Concentrations (S. pyogenes C721): 10^−4 Molar

Sc1ncnc2nc[nH]c12 [6-mercaptopurine]
antibacterial activity against the organisms known to cause vascular access catheter-related infections [1]: did not have antibacterial activity | Minimum Inhibitory Concentrations (S. aureus ATCC25923 C622): N | Minimum Inhibitory Concentrations [2]: N | Minimum Inhibitory Concentrations (S. epidermidis C621): N | Minimum Inhibitory Concentrations (E. coli UB1005 C498): N | Minimum Inhibitory Concentrations [3]: N | Minimum Inhibitory Concentrations (S. pyogenes C721): N

Nc1ccn([C@@H]2O[C@H](CO)[C@@H](O)[C@@H]2O)c(=O)n1 [Cytarabine]
antibacterial activity against the organisms known to cause vascular access catheter-related infections [1]: did not have antibacterial activity | Minimum Inhibitory Concentrations (S. aureus ATCC25923 C622): N | Minimum Inhibitory Concentrations [2]: N | Minimum Inhibitory Concentrations (S. epidermidis C621): N | Minimum Inhibitory Concentrations (E. coli UB1005 C498): N | Minimum Inhibitory Concentrations [3]: N | Minimum Inhibitory Concentrations (S. pyogenes C721): N

CC[C@@]1(O)C(=O)OCc2c1cc1n(c2=O)Cc2cc3ccccc3nc2-1 [camptothecin, Camptothecin]
antibacterial activity against the organisms known to cause vascular access catheter-related infections [1]: did not have antibacterial activity | Minimum Inhibitory Concentrations (S. aureus ATCC25923 C622): N | Minimum Inhibitory Concentrations [2]: N | Minimum Inhibitory Concentrations (S. epidermidis C621): 10^−4 Molar | Minimum Inhibitory Concentrations (E. coli UB1005 C498): N | Minimum Inhibitory Concentrations [3]: N | Minimum Inhibitory Concentrations (S. pyogenes C721): N

COc1cccc2c1C(=O)c1c(O)c3c(c(O)c1C2=O)C[C@@](O)(C(=O)CO)C[C@@H]3O[C@H]1C[C@H](N)[C@H](O)[C@H](C)O1 [doxorubicin, Doxorubicin]
Minimum Inhibitory Concentrations (S. aureus ATCC25923 C622): 10^−5 Molar | activity against Pseudomonas aeruginosa [2]: have activity | Minimum Inhibitory Concentrations [2]: 10^−5 Molar | Minimum Inhibitory Concentrations (S. epidermidis C621): 10^−6 Molar | activity against Escheridia coli (E. coli UB1005 C498): have activity | Minimum Inhibitory Concentrations (E. coli UB1005 C498): 10^−4 Molar | Minimum Inhibitory Concentrations [3]: 10^−6 Molar | Minimum Inhibitory Concentrations (S. pyogenes C721): 10^−7 Molar

COc1cc([C@@H]2c3cc4c(cc3[C@@H](O[C@@H]3O[C@@H]5CO[C@@H](C)O[C@H]5[C@H](O)[C@H]3O)[C@H]3COC(=O)[C@H]23)OCO4)cc(OC)c1O [etoposide, Etoposide]
Minimum Inhibitory Concentrations (S. aureus ATCC25923 C622): 10^−5 Molar | Minimum Inhibitory Concentrations [2]: N | Minimum Inhibitory Concentrations (S. epidermidis C621): 10^−6 Molar | Minimum Inhibitory Concentrations (E. coli UB1005 C498): N | Minimum Inhibitory Concentrations [3]: 10^−5 Molar | Minimum Inhibitory Concentrations (S. pyogenes C721): 10^−5 Molar

NC(=O)NO [hydroxyurea]
antibacterial activity against the organisms known to cause vascular access catheter-related infections [1]: did not have antibacterial activity | Minimum Inhibitory Concentrations (S. aureus ATCC25923 C622): N | activity against Pseudomonas aeruginosa [2]: some activity | Minimum Inhibitory Concentrations [2]: 10^−4 Molar | Minimum Inhibitory Concentrations (S. epidermidis C621): N | Minimum Inhibitory Concentrations (E. coli UB1005 C498): N | Minimum Inhibitory Concentrations [3]: N | Minimum Inhibitory Concentrations (S. pyogenes C721): 10^−4 Molar

CN(Cc1cnc2nc(N)nc(N)c2n1)c1ccc(C(=O)N[C@@H](CCC(=O)O)C(=O)O)cc1 [methotrexate, Methotrexate]
Minimum Inhibitory Concentrations (S. aureus ATCC25923 C622): 10^−5 Molar | Minimum Inhibitory Concentrations [2]: N | Minimum Inhibitory Concentrations (S. epidermidis C621): N | Minimum Inhibitory Concentrations (E. coli UB1005 C498): N | activity against Klebsiella pneumoniae [3]: activity | Minimum Inhibitory Concentrations [3]: 10^−6 Molar | Minimum Inhibitory Concentrations (S. pyogenes C721): 10^−6 Molar

O=C1c2c(O)ccc(O)c2C(=O)c2c(NCCNCCO)ccc(NCCNCCO)c21 [mitoxantrone, Mitoxantrone]
Minimum Inhibitory Concentrations (S. aureus ATCC25923 C622): 10^−5 Molar | activity against Pseudomonas aeruginosa [2]: have activity | Minimum Inhibitory Concentrations [2]: 10^−5 Molar | Minimum Inhibitory Concentrations (S. epidermidis C621): 10^−5 Molar | activity against Escheridia coli (E. coli UB1005 C498): have activity | Minimum Inhibitory Concentrations (E. coli UB1005 C498): 10^−5 Molar | Minimum Inhibitory Concentrations [3]: 10^−6 Molar | Minimum Inhibitory Concentrations (S. pyogenes C721): 10^−6 Molar

CC(=O)O[C@H]1C(=O)[C@@]2(C)[C@H]([C@H](OC(=O)c3ccccc3)[C@]3(O)C[C@H](OC(=O)[C@H](O)[C@@H](NC(=O)c4ccccc4)c4ccccc4)C(C)=C1C3(C)C)[C@]1(OC(C)=O)CO[C@@H]1C[C@@H]2O [paclitaxel]
antibacterial activity against the organisms known to cause vascular access catheter-related infections [1]: did not have antibacterial activity

Nc1ncnc2c1ccn2[C@@H]1O[C@H](CO)[C@@H](O)[C@H]1O [tubercidin]
antibacterial activity against the organisms known to cause vascular access catheter-related infections [1]: did not have antibacterial activity | Minimum Inhibitory Concentrations (S. aureus ATCC25923 C622): N | Minimum Inhibitory Concentrations [2]: N | Minimum Inhibitory Concentrations (S. epidermidis C621): N | Minimum Inhibitory Concentrations (E. coli UB1005 C498): N | Minimum Inhibitory Concentrations [3]: N | Minimum Inhibitory Concentrations (S. pyogenes C721): N

Cisplatin
antibacterial activity against the organisms known to cause vascular access catheter-related infections [1]: did not have antibacterial activity | Minimum Inhibitory Concentrations (S. aureus ATCC25923 C622): N | activity against Pseudomonas aeruginosa [2]: some activity | Minimum Inhibitory Concentrations [2]: 10^−4 Molar | Minimum Inhibitory Concentrations (S. epidermidis C621): N | Minimum Inhibitory Concentrations (E. coli UB1005 C498): N | Minimum Inhibitory Concentrations [3]: N | Minimum Inhibitory Concentrations (S. pyogenes C721): N
